Measured values: patent US9783527B2, “Indazole ureas and method of use” (AbbVie Inc., priority 2014, dated 2017)
pIC50: −log10 of the molar value.

Tests used:
[1] = test system: MIA-induced osteoarthritic pain in rats; experiment: Osteoarthritic (OA) pain induced by sodium monoiodoacetate (MIA), hind limb grip force; assay type: in vivo, rat; settings: male Sprague Dawley rats, grip force 20 days after MIA injection
Description: Osteoarthritic (OA) Pain Induced by Sodium Monoiodoacetate (MIA)
Pain behavior was assessed by measurement of hind limb grip force (GF) in adult osteoarthritic rats. Male Sprague Dawley rats, obtained from Charles River Laboratories, (Wilmington, Mass.), weighing 150-175 g, were injected in the unilateral knee join with a single intra-articular injection of sodium monoiodoacetate (MIA, 3 mg/rat). All rats were tested at 20 days following MIA injection. A behavioral measure of activity-induced pain was carried out. Measurements of the peak hind limb grip force were conducted by recording the maximum compressive force (CFmax), in grams of force, exerted on a hind limb strain gauge setup, in a commercially available grip force measurement system (Columbus Instruments, Columbus, Ohio).
During testing, each rat was gently restrained by grasping it around its rib cage and then allowed to grasp the wire mesh frame attached to the strain gauge. The experimenter then moved the animal in a rostral-to-caudal direction until the grip was broken. Each rat was sequentially tested twice at an approximately 2-3 minute interval to obtain a raw mean grip force (CFmax). This raw mean grip force data was in turn converted to a maximum hindlimb cumulative compressive force (CFmax), as the grams of force/kg of body weight, for each animal.
For evaluating the compound effects, the hind limb grip force was conducted 20 days following the intra-articular injection of MIA. A group of age-matched nave (not injected with MIA) animals was added as a comparator to the drug-dosed groups. The vehicle control response for each group of MIA-treated animals was defined as the 0% response (0% effect), whereas the nave control group was defined as the normal response and as 100% effect. The % effect for each dose group was expressed as % return of response to normalcy, compared to the nave group. A percent maximal possible effect (% MPE) of testing compound was calculated according to the formula: (Treatment CFmax−Vehicle CFmax)/Vehicle CFmax]×100). Higher % effect numbers indicate increased relief from the pain in the model, with 100% indicating a return to the level of response seen in normal (non-osteoarthritic) animals. All experiments evaluating drug effects in this model were conducted in a randomized blinded fashion.
The animals were housed in Association for Assessment and Accreditation of Laboratory Animal Care (AAALAC) approved facilities at AbbVie Inc. in a temperature-regulated environment under a controlled 12-hour light-dark cycle, with lights on at 6:00 a.m. Food and water were available ad libitum at all times except during testing. All testing was done following procedures outlined in protocols approved by AbbVie Inc.'s Institutional Animal Care and Use Committee.

human Nav1.7 = human Nav1.7 (Homo sapiens (Human), UniProt Q15858); experiment: FRET-based membrane potential assay, recombinant human sodium channel Nav1.7; assay type: cell-based; settings: HEK293 cells stably expressing recombinant human Nav1.7; depolarization with veratridine (EC80) + scorpion venom
Chain of human Nav1.7 (Q15858 whole entry): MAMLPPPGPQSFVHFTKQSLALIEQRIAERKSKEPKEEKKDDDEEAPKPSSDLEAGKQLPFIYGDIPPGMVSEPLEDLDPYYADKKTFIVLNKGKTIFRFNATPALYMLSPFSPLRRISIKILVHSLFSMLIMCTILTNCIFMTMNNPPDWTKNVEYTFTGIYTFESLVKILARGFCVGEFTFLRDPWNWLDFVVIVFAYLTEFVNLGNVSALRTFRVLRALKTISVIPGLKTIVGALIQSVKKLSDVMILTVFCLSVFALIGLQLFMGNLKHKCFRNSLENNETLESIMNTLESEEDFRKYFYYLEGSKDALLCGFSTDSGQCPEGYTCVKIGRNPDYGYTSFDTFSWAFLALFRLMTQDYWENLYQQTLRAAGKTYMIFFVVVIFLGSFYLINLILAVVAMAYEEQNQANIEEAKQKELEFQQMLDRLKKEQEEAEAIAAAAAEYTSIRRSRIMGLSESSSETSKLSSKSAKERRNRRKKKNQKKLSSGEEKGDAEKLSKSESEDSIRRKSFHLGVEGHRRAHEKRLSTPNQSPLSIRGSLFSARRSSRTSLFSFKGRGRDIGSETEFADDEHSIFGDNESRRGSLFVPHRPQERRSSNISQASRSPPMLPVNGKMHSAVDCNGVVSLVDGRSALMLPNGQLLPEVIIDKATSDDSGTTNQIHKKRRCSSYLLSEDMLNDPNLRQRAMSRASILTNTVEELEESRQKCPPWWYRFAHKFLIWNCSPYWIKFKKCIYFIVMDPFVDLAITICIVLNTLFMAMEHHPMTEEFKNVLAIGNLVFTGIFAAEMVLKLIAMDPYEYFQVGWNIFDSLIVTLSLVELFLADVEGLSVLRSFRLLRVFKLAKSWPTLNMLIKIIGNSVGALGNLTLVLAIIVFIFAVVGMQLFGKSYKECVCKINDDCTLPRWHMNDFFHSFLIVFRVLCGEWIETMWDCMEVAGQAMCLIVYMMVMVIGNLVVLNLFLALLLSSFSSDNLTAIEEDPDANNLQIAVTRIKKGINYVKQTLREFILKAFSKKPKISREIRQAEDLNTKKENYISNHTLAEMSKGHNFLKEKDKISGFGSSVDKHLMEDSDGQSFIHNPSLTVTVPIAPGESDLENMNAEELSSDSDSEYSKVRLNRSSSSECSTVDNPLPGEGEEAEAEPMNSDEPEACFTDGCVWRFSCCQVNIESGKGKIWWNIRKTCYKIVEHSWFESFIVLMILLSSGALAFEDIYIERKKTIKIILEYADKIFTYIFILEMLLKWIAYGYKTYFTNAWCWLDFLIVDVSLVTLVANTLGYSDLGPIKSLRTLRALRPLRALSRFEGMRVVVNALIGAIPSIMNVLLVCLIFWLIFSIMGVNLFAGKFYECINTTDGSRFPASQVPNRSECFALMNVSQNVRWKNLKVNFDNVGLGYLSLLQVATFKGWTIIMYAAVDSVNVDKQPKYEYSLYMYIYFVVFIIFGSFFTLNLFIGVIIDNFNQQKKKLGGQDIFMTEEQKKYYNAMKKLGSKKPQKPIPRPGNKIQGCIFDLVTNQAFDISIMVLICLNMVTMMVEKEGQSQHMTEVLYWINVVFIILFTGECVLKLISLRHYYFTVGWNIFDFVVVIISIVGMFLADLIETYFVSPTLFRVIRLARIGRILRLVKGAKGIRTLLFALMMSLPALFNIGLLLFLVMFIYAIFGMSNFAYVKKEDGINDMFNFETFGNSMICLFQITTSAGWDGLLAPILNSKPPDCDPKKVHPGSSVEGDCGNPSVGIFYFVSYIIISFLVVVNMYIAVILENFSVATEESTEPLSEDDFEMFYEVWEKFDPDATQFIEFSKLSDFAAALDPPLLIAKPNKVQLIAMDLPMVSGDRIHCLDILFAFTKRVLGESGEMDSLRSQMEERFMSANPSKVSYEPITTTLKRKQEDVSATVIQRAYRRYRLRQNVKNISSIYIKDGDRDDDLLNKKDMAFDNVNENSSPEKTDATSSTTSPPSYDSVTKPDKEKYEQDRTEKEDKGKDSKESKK
How it was run: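 IC50 derived by four-parameter Hill fit of percent inhibition of depolarization, measured as peak F440-480/F565-625 ratio over baseline. Stable human Nav1.7 HEK293 cells, dye-loaded with CC2-DMPE and DiSBAC2(3)/VABSC-1 at room temperature, received compound 3 min ahead of veratridine (EC80) plus scorpion venom.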

human Nav1.8 = human Nav1.8 (Homo sapiens (Human), UniProt Q9Y5Y9); experiment: FRET-based membrane potential assay, recombinant human sodium channel Nav1.8; assay type: cell-based; settings: HEK293 cells stably expressing recombinant human Nav1.8; depolarization with veratridine (EC80) + scorpion venom
Chain of human Nav1.8 (Q9Y5Y9 whole entry): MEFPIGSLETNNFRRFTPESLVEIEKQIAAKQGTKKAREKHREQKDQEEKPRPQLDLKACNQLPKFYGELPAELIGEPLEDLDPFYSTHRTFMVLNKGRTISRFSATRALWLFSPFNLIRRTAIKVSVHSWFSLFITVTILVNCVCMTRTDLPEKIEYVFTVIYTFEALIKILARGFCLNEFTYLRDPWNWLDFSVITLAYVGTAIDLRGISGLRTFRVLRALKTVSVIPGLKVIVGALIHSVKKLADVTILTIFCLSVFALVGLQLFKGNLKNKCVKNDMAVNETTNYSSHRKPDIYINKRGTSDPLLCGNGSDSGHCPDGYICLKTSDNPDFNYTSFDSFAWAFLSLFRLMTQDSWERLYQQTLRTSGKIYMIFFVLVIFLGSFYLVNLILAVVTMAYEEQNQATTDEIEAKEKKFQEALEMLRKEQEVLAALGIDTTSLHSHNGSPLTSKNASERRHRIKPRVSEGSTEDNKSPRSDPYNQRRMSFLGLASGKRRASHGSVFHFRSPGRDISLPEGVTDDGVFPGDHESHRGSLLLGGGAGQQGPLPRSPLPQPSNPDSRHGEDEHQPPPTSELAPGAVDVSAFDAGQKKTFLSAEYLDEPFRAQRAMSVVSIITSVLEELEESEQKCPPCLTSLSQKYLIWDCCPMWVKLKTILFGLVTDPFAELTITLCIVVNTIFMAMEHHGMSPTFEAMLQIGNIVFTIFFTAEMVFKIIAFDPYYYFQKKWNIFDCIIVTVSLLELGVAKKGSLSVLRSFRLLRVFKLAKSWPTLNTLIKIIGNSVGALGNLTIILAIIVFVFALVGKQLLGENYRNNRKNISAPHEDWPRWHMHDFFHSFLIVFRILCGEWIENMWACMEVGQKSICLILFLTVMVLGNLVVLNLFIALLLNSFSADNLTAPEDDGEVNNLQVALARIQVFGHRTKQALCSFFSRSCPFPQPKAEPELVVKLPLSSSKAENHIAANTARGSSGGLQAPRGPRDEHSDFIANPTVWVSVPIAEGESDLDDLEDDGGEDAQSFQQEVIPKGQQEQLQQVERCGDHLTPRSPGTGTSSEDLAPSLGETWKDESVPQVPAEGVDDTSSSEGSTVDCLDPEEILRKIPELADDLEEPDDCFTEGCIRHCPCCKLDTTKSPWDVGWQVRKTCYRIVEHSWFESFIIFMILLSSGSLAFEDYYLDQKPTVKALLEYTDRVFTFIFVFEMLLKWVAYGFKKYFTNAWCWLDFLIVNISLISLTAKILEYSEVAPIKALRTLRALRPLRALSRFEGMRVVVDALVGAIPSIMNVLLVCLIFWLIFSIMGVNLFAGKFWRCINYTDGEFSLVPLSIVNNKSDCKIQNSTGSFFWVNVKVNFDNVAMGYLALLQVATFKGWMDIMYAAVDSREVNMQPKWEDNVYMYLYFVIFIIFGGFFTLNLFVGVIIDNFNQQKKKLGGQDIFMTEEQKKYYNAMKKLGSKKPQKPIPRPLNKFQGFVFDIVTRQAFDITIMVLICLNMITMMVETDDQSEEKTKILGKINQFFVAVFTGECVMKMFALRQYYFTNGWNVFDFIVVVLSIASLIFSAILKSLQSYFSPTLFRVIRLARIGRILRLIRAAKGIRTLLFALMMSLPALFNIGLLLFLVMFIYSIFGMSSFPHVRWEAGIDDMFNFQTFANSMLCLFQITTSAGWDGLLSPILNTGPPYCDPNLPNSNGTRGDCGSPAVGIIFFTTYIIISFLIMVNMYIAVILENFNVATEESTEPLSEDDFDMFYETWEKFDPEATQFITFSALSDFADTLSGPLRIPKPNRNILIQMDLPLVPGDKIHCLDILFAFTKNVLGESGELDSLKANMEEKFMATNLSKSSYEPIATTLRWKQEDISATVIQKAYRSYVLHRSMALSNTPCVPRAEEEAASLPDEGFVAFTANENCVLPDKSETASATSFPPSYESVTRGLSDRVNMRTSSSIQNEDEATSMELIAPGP
How it was run: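 HEK293 cells stably expressing Nav1.8 were loaded with CC2-DMPE/DiSBAC2(3) FRET voltage dyes. Compounds were added 3 min before depolarization with EC80 veratridine plus scorpion venom. The F440-480/F565-625 ratio was read on FLIPR; IC50 came from four-parameter Hill fits.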

| SMILES | OA MPE (%) ([1]; OA dose 30 mg/kg) | pIC50 (human Nav1.7) | OA MPE (%) ([1]; OA dose 10 mg/kg) | pIC50 (human Nav1.8) |
| --- | --- | --- | --- | --- |
| O=C(CN1CCN(c2cccc3c2cnn3-c2ccccc2F)C1=O)NC1CC1 [Example 13, N-cyclopropyl-2-{3-[1-(2-fluorophenyl)-1H-indazol-4-yl]-2-oxoimidazolidin-1-yl}acetamide] | 47% |  |  |  |
| O=C1N(Cc2nc(C(F)(F)F)cs2)CCN1c1cccc2c1cnn2-c1ccccc1F [Example 14, 1-[1-(2-fluorophenyl)-1H-indazol-4-yl]-3-{[4-(trifluoromethyl)-1,3-thiazol-2-yl]methyl}imidazolidin-2-one] | 60% | 6.21 |  |  |
| O=C1N(CC(=O)N2C[C@@H]3C[C@H]2CO3)CCN1c1cccc2c1cnn2-c1ccccc1F [Example 16, 1-[1-(2-fluorophenyl)-1H-indazol-4-yl]-3-{2-[(1S,4S)-2-oxa-5-azabicyclo[2.2.1]hept-5-yl]-2-oxoethyl}imidazolidin-2-one] | 67% | 6.13 |  |  |
| O=C(CN1CCN(c2cccc3c2cnn3-c2ccccc2F)C1=O)N1CCCC(F)C1 (stereo not shown) [Example 17, 1-[1-(2-fluorophenyl)-1H-indazol-4-yl]-3-[2-(3-fluoropiperidin-1-yl)-2-oxoethyl]imidazolidin-2-one] | 91% |  |  |  |
| O=C1N(CC(=O)N2C[C@@H](F)C[C@@H]2c2cc(F)ccc2F)CCN1c1cccc2c1cnn2-c1ccccc1F [Example 18, 1-{2-[(2R,4S)-2-(2,5-difluorophenyl)-4-fluoropyrrolidin-1-yl]-2-oxoethyl}-3-[1-(2-fluorophenyl)-1H-indazol-4-yl]imidazolidin-2-one] |  | 6.24 | 65% |  |
| O=C1N(c2cccnc2)CCN1c1cccc2c1cnn2-c1ccccc1F [Example 19, 1-[1-(2-fluorophenyl)-1H-indazol-4-yl]-3-(pyridin-3-yl)imidazolidin-2-one] |  | 5.53 | 67% |  |
| O=C1N(c2ccncc2)CCN1c1cccc2c1cnn2-c1ccccc1F [Example 20, 1-[1-(2-fluorophenyl)-1H-indazol-4-yl]-3-(pyridin-4-yl)imidazolidin-2-one] |  |  | 91% |  |
| CC(C)(C)C(O)CN1CCN(c2cccc3c2cnn3-c2ccccc2F)C1=O (stereo not shown) [Example 22, 1-[1-(2-fluorophenyl)-1H-indazol-4-yl]-3-(2-hydroxy-3,3-dimethylbutyl)imidazolidin-2-one] | 38% | 5.52 |  |  |
| O=C(CN1CCCN(c2cccc3c2cnn3-c2ccccc2F)C1=O)N1CC[C@H](F)C1 [Example 23, 1-[1-(2-fluorophenyl)-1H-indazol-4-yl]-3-{2-[(3S)-3-fluoropyrrolidin-1-yl]-2-oxoethyl}tetrahydropyrimidin-2(1H)-one] | 45% | 5.83 |  |  |
| Cc1csc(CN2CCN(c3cccc4c3cnn4-c3ccccc3F)C2=O)n1 [Example 24, 1-[1-(2-fluorophenyl)-1H-indazol-4-yl]-3-[(4-methyl-1,3-thiazol-2-yl)methyl]imidazolidin-2-one] |  | 6.47 | 62% |  |
| O=C1N(c2ncccn2)CCN1c1cccc2c1cnn2-c1ccccc1F [Example 28, 1-[1-(2-fluorophenyl)-1H-indazol-4-yl]-3-(pyrimidin-2-yl)imidazolidin-2-one] |  | 6.34 | 62% |  |
| O=C1N(Cc2nnco2)CCN1c1cccc2c1cnn2-c1ccccc1F [Example 29, 1-[1-(2-fluorophenyl)-1H-indazol-4-yl]-3-(1,3,4-oxadiazol-2-ylmethyl)imidazolidin-2-one] |  | 5.66 | 46% |  |
| O=C1N(Cc2nnc(C3CC3)s2)CCN1c1cccc2c1cnn2-c1ccccc1F [Example 30, 1-[(5-cyclopropyl-1,3,4-thiadiazol-2-yl)methyl]-3-[1-(2-fluorophenyl)-1H-indazol-4-yl]imidazolidin-2-one] |  | 5.89 | 80% |  |
| Cc1cnc(N2CCN(c3cccc4c3cnn4-c3ccccc3F)C2=O)nc1 [Example 33, 1-[1-(2-fluorophenyl)-1H-indazol-4-yl]-3-(5-methylpyrimidin-2-yl)imidazolidin-2-one] |  | 6.20 | 17% |  |
| O=C1N(Cc2nccs2)CCN1c1cccc2c1cnn2-c1ccccc1F [Example 34, 1-[1-(2-fluorophenyl)-1H-indazol-4-yl]-3-(1,3-thiazol-2-ylmethyl)imidazolidin-2-one] |  | 6.38 | 43% |  |
| O=C1N(Cc2cnccn2)CCN1c1cccc2c1cnn2-c1ccccc1F [Example 35, 1-[1-(2-fluorophenyl)-1H-indazol-4-yl]-3-(pyrazin-2-ylmethyl)imidazolidin-2-one] |  | 6.13 | 19% |  |
| O=C1N(Cc2ncco2)CCN1c1cccc2c1cnn2-c1ccc(F)cc1F [Example 36, 1-[1-(2,4-difluorophenyl)-1H-indazol-4-yl]-3-(1,3-oxazol-2-ylmethyl)imidazolidin-2-one] |  | 6.19 | 27% |  |
| O=C1N(Cc2cocn2)CCN1c1cccc2c1cnn2-c1ccc(F)cc1F [Example 37, 1-[1-(2,4-difluorophenyl)-1H-indazol-4-yl]-3-(1,3-oxazol-4-ylmethyl)imidazolidin-2-one] |  | 6.41 | 35% |  |
| C[C@H]1CN(c2cccc3c2cnn3-c2ccccc2F)C(=O)N1Cc1ncco1 [Example 38, (4S)-1-[1-(2-fluorophenyl)-1H-indazol-4-yl]-4-methyl-3-(1,3-oxazol-2-ylmethyl)imidazolidin-2-one] |  | 5.86 | 33% |  |
| O=C1N(Cc2cscn2)CCN1c1cccc2c1cnn2-c1ccccc1F [Example 39, 1-[1-(2-fluorophenyl)-1H-indazol-4-yl]-3-(1,3-thiazol-4-ylmethyl)imidazolidin-2-one] |  | 6.52 | 38% |  |
| Cc1cncc(CN2CCN(c3cccc4c3cnn4-c3ccccc3F)C2=O)n1 [Example 42, 1-[1-(2-fluorophenyl)-1H-indazol-4-yl]-3-[(6-methylpyrazin-2-yl)methyl]imidazolidin-2-one] |  |  | 35% |  |
| O=C(CN1CCN(c2cccc3c2cnn3-c2ccccc2F)C1=O)N1CCC[C@H](F)C1 [Example 54, 1-[1-(2-fluorophenyl)-1H-indazol-4-yl]-3-{2-[(3S)-3-fluoropiperidin-1-yl]-2-oxoethyl}imidazolidin-2-one] | 57% |  |  |  |
| CN(C(=O)CN1CCN(c2cccc3c2cnn3-c2ccccc2F)C1=O)C1CCC1 [Example 351, N-cyclobutyl-2-{3-[1-(2-fluorophenyl)-1H-indazol-4-yl]-2-oxoimidazolidin-1-yl}-N-methylacetamide] |  | 5.46 |  | 5.73 |
| CC1CN(C(=O)CN2CCN(c3cccc4c3cnn4-c3ccccc3F)C2=O)C1 [Example 352, 1-[1-(2-fluorophenyl)-1H-indazol-4-yl]-3-[2-(3-methylazetidin-1-yl)-2-oxoethyl]imidazolidin-2-one] |  | 5.82 |  | 5.59 |
| O=C(CN1CCN(c2cccc3c2cnn3-c2ccccc2F)C1=O)NC1(C(F)(F)F)CCC1 [Example 353, 2-{3-[1-(2-fluorophenyl)-1H-indazol-4-yl]-2-oxoimidazolidin-1-yl}-N-[1-(trifluoromethyl)cyclobutyl]acetamide] |  | 5.48 |  | 5.77 |
| O=C(CN1CCN(c2cccc3c2cnn3-c2ccccc2F)C1=O)NC1CC(=NO)C1 (stereo not shown) [Example 354, 2-{3-[1-(2-fluorophenyl)-1H-indazol-4-yl]-2-oxoimidazolidin-1-yl}-N-[3-(hydroxyimino)cyclobutyl]acetamide] |  | 5.19 |  | 4.78 |
| CON=C1CC(NC(=O)CN2CCN(c3cccc4c3cnn4-c3ccccc3F)C2=O)C1 (stereo not shown) [Example 355, 2-{3-[1-(2-fluorophenyl)-1H-indazol-4-yl]-2-oxoimidazolidin-1-yl}-N-[3-(methoxyimino)cyclobutyl]acetamide] |  | 5.03 |  | 5.39 |
